From patent publication US8933270B2, “Use of docasatrienes, resolvins, and their stable analogs in the treatment of airway diseases and asthma” (The Brigham and Women's Hospital, Inc., priority 2002, dated 2015)

How the values were obtained:
[1] = test system: BALF cytokines and lipid mediators; test: OVA model: inflammatory mediators in BAL fluid by ELISA; format: in vivo, FvB mice
From the text: (§1) Five to seven week old male FvB mice (Charles River Laboratories, Wilmington, Mass.) were housed in isolation cages under viral antibody-free conditions. Mice were fed a standard diet (Laboratory Rodent Diet 5001, PMI Nutrition International, Richmond, Ind.) that contained no less than 4.5% total fat with 0.26% omega-3 fatty acids and <0.01% C20:4. After Harvard Medical Area IRB approval (Protocol #02570), mice were sensitized with intraperitoneal injections of ovalbumin (OVA) (Grade III; Sigma Chemical Co., St. Louis, Mo.) (10 μg) plus 1 mg aluminum hydroxide (ALUM) (J. T. Baker Chemical Co.; Phillipsburg, N.J.) as adjuvant in 0.2 ml PBS on days 0 and 7. On days 14, 15, 16 and 17, the mice received PD1 (2, 20 or 200 ng), Resolvin E1 (200 ng) (products of biogenic synthesis (Hong, Gronert et al. 2003)), or PBS with 1.6 mM CaCl2 and 1.6 mM MgCl2 (0.1 ml) by intravenous injection 30 min prior to an aerosol challenge containing either PBS or 6% OVA for 25 min/day. On day 18, 24 h after the last aerosol challenge, airway responsiveness to aerosolized methacholine (0, 20, 50 and 75 mg, 10 sec) was measured, bilateral bronchoalveolar lavage (BAL) (2 aliquots of 1 ml PBS plus 0.6 mM EDTA) was performed or tissues were harvested for histological analysis. Lung resistance was measured using a Flexivent ventilator (SciReq, Montreal, Quebec). Resistance was measured as a function of time for each animal, and peak and average values for each dose of methacholine were recorded. No BAL or histological analysis was performed on those animals undergoing airway hyper-responsiveness or lipid extraction studies.
(§2) Tissue morphometry was performed by a member (K. Haley) of the Lung Histopathology Core Laboratory at Brigham and Women's Hospital who was blinded to the experimental conditions prior to histological analyses. Three fields per slide were examined at 200× magnification for vessels, large airways and alveoli with EOS counted at 400× magnification in randomly assigned fields. Vessels were identified by perivascular smooth muscle, and large airways were identified by at least ½ their diameter either cuboidal or columnar epithelia. Measurement of inflammatory mediators was determined in cell-free BAL fluid (2000 g, 10 min) by sensitive and specific ELISAs, in tandem, for interleukin-5 (IL-5), IL-12, IL-13, PGD2 (R&D Systems, Minneapolis, Minn.), cysteinyl LTs, (Cayman Chemical Co, Ann Arbor, Mich.), and LXA4 (Neogen, Lexington, Ky.). Cells in BALF were resuspended in PBS, enumerated by hemocytometer, and concentrated onto microscope slides by cytocentrifuge (STATspin) (265 g). Cells were stained with a Wright-Giemsa stain (Sigma Chemical Co.) to determine leukocyte differentials (after counting ≧200 cells).

[2] = test system: airway hyper-responsiveness; test: OVA model: airway responsiveness to inhaled methacholine (lung resistance); format: in vivo, FvB mice; details: PD1 0-200 ng; methacholine 0, 20, 50, 75 mg
Method: Because increased airway reactivity is a diagnostic hallmark of asthma, it was also determined if PD 1 regulated airway hyper-responsiveness to inhaled methacholine. After allergen sensitization and aerosol challenge in the presence of PD 1 (0-200 ng), animals were ventilated and exposed (10 sec) to increasing concentrations of inhaled methacholine (0, 20, 50 and 75 mg).
Five to seven week old male FvB mice (Charles River Laboratories, Wilmington, Mass.) were housed in isolation cages under viral antibody-free conditions. Mice were fed a standard diet (Laboratory Rodent Diet 5001, PMI Nutrition International, Richmond, Ind.) that contained no less than 4.5% total fat with 0.26% omega-3 fatty acids and <0.01% C20:4. […] On day 18, 24 h after the last aerosol challenge, airway responsiveness to aerosolized methacholine (0, 20, 50 and 75 mg, 10 sec) was measured, bilateral bronchoalveolar lavage (BAL) (2 aliquots of 1 ml PBS plus 0.6 mM EDTA) was performed or tissues were harvested for histological analysis. Lung resistance was measured using a Flexivent ventilator (SciReq, Montreal, Quebec). Resistance was measured as a function of time for each animal, and peak and average values for each dose of methacholine were recorded. […]

[3] = test system: airway leukocyte accumulation; test: OVA sensitization and aerosol challenge: lung histology and BAL leukocytes; format: in vivo
Method: To determine if PD1 and Resolvin E1 had properties of a counter-regulatory mediator during airway inflammation, physiologically relevant quantities (2, 20 or 200 ng) were administered by intravenous injection to allergen sensitized animals just prior (30 min) to aerosol challenge on 4 consecutive days. […] In conjunction with decreased airway inflammation, levels of the counter-regulatory eicosanoid LXA4 were also […] in the presence of PD1 (data not shown).
as §1, §2

PMN infiltration = test: Zymosan A-induced peritonitis; format: in vivo, FVB mice; details: i.v. bolus before zymosan A, lavage at 2 h
Method: FIG. 5 depicts Bioimpact properties of omega-3-derived Resolvins. A) Human glioma cells: Inhibition of TNF-stimulated IL-1β transcripts DBTRG-05MG cells 10^6/ml were stimulated with 50 ng/ml of human recombinant TNFα for 16 hours to induce expression of IL-1β transcripts. Concentration dependence with COX-2 products: 17-HDHA (n), 13-HDHA (l)and di-/tri-HDHA (n). […] (insets) Results are representative of RT-PCR gels of MG cells exposed to 100 nM of 13-HDHA or 17-HDHA and graphed after normalization of the IL-1β transcripts using GAPDH. B) Influence of eicosanoids and docosanoids on fMLP-induced neutrophil migration across micovascular endothelial monolayers Neutrophils (1×10^6 cells/monolayer) were exposed to vehicle containing buffer, or indicated concentrations of aspirin-triggered LXA4 analog (closed diamonds) 5S,12,18R-triHEPE (closed squares), 17R-HDHA (closed circles) or 13-HDHA (closed triangles) for 15 minutes at 37° C. Neutrophils were then layered on HMVEC monolayers and stimulated to transmigrate by a 10^−8 M fMLP gradient for 1 hr at 37° C. Transmigration was assessed by quantitation of the neutrophil marker myeloperoxidase. Results are presented as mean±SEM number of PMN (n=8-12 monolayers per condition). C) Reduction of PMN in murine peritonitis and skin pouch peritonitis: Compounds (100 ng in 120 μL sterile saline) were injected by intravenous bolus injection into the mouse tail vein and followed by 1 ml zymosan A (1 mg/ml) into the peritoneum. Peritoneal lavages were collected (2 h) and cell types were enumerated.
Human PMN transendothelial migration was quantitated by monitoring myeloperoxidase (MPO) an azurophilic granule marker as in (34, 37). Inflammatory exudates were initiated with intrapouch injection of recombinant mouse TNFα (100 ng/pouch; R&D Systems) into dorsal air pouches (10) of 6-8 wk male FVB mice fed laboratory rodent diet 5001 (Lab Diet, Purina Mills) containing less than 0.25% arachidonic acid, 1.49% EPA and 1.86% DHA followed by ASA (500 μg) at 3.5 h and 300 μg DHA/pouch at 4 h post-TNFα injection. At 6 h (within the resolution phase), pouches were lavaged (3 ml saline) and exudate cells were enumerated Inhibition of TNFα stimulated (100 ng/pouch) PMN infiltration with i.v. tail injection of either 17R-HDHA (as prepared with COX-2 vide infra), 5S,12,18R-HEPE, or a 15-epi-LXA4 analog were determined with pouch lavages taken at 4 h. Peritonitis was performed using 6 to 8-week-old FVB male mice (Charles River Laboratories) fed laboratory Rodent Diet 5001 (Purina Mills) that were anesthetized with isoflurane, and compounds to be tested (125 μl) were administered intravenously. Zymosan A in 1 ml (1 mg/ml) was injected ˜1-1.5 min later in the peritoneum. Each test compound (100 ng/incubation, i.e. 17R-HDHA in ethanol) or vehicle alone was suspended in ˜5 μl and mixed in sterile saline 120 μl. Two hours after the intraperitoneal injections, and in accordance with the Harvard Medical Area Standing Committee on Animals protocol #02570, mice were euthanized and peritoneal lavages rapidly collected for enumeration.
Peritonitis was induced in 6 to 8 week old male FVB mice by peritoneal injection of 1 mg Zymosan A. Compounds 4,17S and 10,17S-diHDHA were injected by intravenous bolus injection, 1.5 minutes before Zymosan A treatment. Two hours after induction of peritonitis, rapid peritoneal lavages were collected and cell type enumeration was performed.

[4] = i.v. 30 min before aerosol challenge on 4 days

CC/C=C\C[C@H](O)\C=C/C=C/C=C/C(O)C/C=C\C/C=C\CCC(=O)O (stereo in doubt) [PD1, 10,17S-dihydroxy-4,7,15,19-cis-11,13-trans-docosahexaenoic acid]
IL-12 levels ([1]; BAL fluid): no significant effect | allergen-induced increase in CysLTs ([1]; BAL fluid): blocked allergen-induced increases | allergen-induced increase in IL-13 ([1]; BAL fluid): blocked allergen-induced increases | allergen-induced increase in PGD2 ([1]; BAL fluid): blocked allergen-induced increases | potency of inhibitory concentrations relative to the LX analog ([1]; IL-13 and CysLT generation): 1 to 2 log orders | levels of LXA4 ([1]; data not shown): diminished | peak and average lung resistance in response to methacholine [2]: decreased both peak and average lung resistance | eosinophil and lymphs (FIG. 25) ([3]; 10,17-DT 20 ng and 200 ng, Resolvin E1 200 ng): reduced | total leukocytes, EOS and Lymphs in BAL fluid ([3]; PD1 2, 20 or 200 ng, Resolvin E1 200 ng i.v.): decreased | behavioral or physical signs of toxicity ([3]; PD1 treatment, nanogram quantities i.v.): No behavioral or physical signs of toxicity | lowest dose reducing TH2 lymphocyte activation / eosinophil recruitment ([3]; i.v.): 2 ng | EOS tissue infiltration around vessels, large and peripheral airways (morphometry) [3, 4]: significant decreases | edema and epithelial hyperplasia [3, 4]: markedly decreased | eosinophils and lymphocytes in peribronchiolar regions and airspaces ([3]; i.v. 30 min before aerosol challenge on 4 days, vs vehicle): substantially less | inhibition of PMN/leukocyte infiltration (PMN infiltration; listed as 10,17S-docosatrienes): potent inhibition | inhibition of PMN/leukocyte infiltration (PMN infiltration; listed as 10,17 di-HDHA): inhibited
